# Assay: recombinant barcode read abundance after kanamycin selection (control-corrected) (log10(CPM+1)); higher = more efficient recombination; sequences stand for … in AGTGCAGAGAAAATCGGCCAGTTTTCTCTGCCTGCAGTCCGCATGCCGT…ATTTATGCAGCGGACTGCCTTTCTCCCAAAGTGATAAACCGGACAGTATCATGGACCGGTTTTCCCGGTAATCCGTATTTGCAAGGTTGGTTTCACT; site = the 11-nt target
# Method in brief: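 Values are log10(CPM+1) from a pooled E. coli screen of targets paired with IS621 bridge RNA target-binding loops. Recombination efficiency here means counts per million of recombinant-junction barcodes, averaged and control-corrected. Plates were chloramphenicol/ampicillin LB agar for the control and chloramphenicol/ampicillin/kanamycin with 0.1 mM IPTG, two replicates each.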
row,Sequence,recombinant barcode read abundance (log10)
1,"CGAGCCCGATGGGTTCTAACCTGTTGCTGAG [CGAGCCCCTCA_LTGcore_GA_RTGcore_CT] (site CGAGCCCCTCA) (LTG core: GA, RTG core: CT)",0.157
2,"CGAGCCCGGTGGGTTCTAACCTGTTGCTGCC [CGAGCCCCTCA_LTGcore_GG_RTGcore_GG] (site CGAGCCCCTCA) (LTG core: GG, RTG core: GG)",0.18
3,"CGAGCCCTATGGGTTCTAACCTGTTGCTGAG [CGAGCCCCTCA_LTGcore_TA_RTGcore_CT] (site CGAGCCCCTCA) (LTG core: TA, RTG core: CT)",0.312
4,"CGAGCCCTCTGGGTTCTAACCTGTTGCTGGA [CGAGCCCCTCA_LTGcore_TC_RTGcore_TC] (site CGAGCCCCTCA) (LTG core: TC, RTG core: TC)",0.139
5,"CGCGCCCAGTGGGTTCTAACCTGTTGCGGAG [CGCGCCCCTCC_LTGcore_AG_RTGcore_CT] (site CGCGCCCCTCC) (LTG core: AG, RTG core: CT)",0.0753
6,"CGCGCCCATTGGGTTCTAACCTGTTGCGGAT [CGCGCCCCTCC_LTGcore_AT_RTGcore_AT] (site CGCGCCCCTCC) (LTG core: AT, RTG core: AT)",0.0457
7,"CGCGCCCCTTGGGTTCTAACCTGTTGCGGTC [CGCGCCCCTCC_LTGcore_CT_RTGcore_GA] (site CGCGCCCCTCC) (LTG core: CT, RTG core: GA)",0.041
8,"CGCGCCCGCTGGGTTCTAACCTGTTGCGGAG [CGCGCCCCTCC_LTGcore_GC_RTGcore_CT] (site CGCGCCCCTCC) (LTG core: GC, RTG core: CT)",0.198
9,"CGCGCCCGTTGGGTTCTAACCTGTTGCGGAC [CGCGCCCCTCC_LTGcore_GT_RTGcore_GT] (site CGCGCCCCTCC) (LTG core: GT, RTG core: GT)",0.421
10,"CGCGCCCTCTGGGTTCTAACCTGTTGCGGAG [CGCGCCCCTCC_LTGcore_TC_RTGcore_CT] (site CGCGCCCCTCC) (LTG core: TC, RTG core: CT)",0.264
11,"CGCGCCCTCTGGGTTCTAACCTGTTGCGGGA [CGCGCCCCTCC_LTGcore_TC_RTGcore_TC] (site CGCGCCCCTCC) (LTG core: TC, RTG core: TC)",0.307
12,"CGCGCCCTGTGGGTTCTAACCTGTTGCGGCA [CGCGCCCCTCC_LTGcore_TG_RTGcore_TG] (site CGCGCCCCTCC) (LTG core: TG, RTG core: TG)",0.0883
13,"CGCGCCCTTTGGGTTCTAACCTGTTGCGGAA [CGCGCCCCTCC_LTGcore_TT_RTGcore_TT] (site CGCGCCCCTCC) (LTG core: TT, RTG core: TT)",0.156
14,"CGGTCCCAGTGGGTTCTAACCTGTTGCCACT [CGGTCCCCTTG_LTGcore_AG_RTGcore_AG] (site CGGTCCCCTTG) (LTG core: AG, RTG core: AG)",0.258
15,"CGGTCCCCTTGGGTTCTAACCTGTTGCCAAC [CGGTCCCCTTG_LTGcore_CT_RTGcore_GT] (site CGGTCCCCTTG) (LTG core: CT, RTG core: GT)",0.0684
16,"CGGTCCCCTTGGGTTCTAACCTGTTGCCAAT [CGGTCCCCTTG_LTGcore_CT_RTGcore_AT] (site CGGTCCCCTTG) (LTG core: CT, RTG core: AT)",0.133
17,"CGGTCCCCTTGGGTTCTAACCTGTTGCCACT [CGGTCCCCTTG_LTGcore_CT_RTGcore_AG] (site CGGTCCCCTTG) (LTG core: CT, RTG core: AG)",0.0728
18,"CGGTCCCGCTGGGTTCTAACCTGTTGCCAAG [CGGTCCCCTTG_LTGcore_GC_RTGcore_CT] (site CGGTCCCCTTG) (LTG core: GC, RTG core: CT)",0.313
19,"CGGTCCCGCTGGGTTCTAACCTGTTGCCAGC [CGGTCCCCTTG_LTGcore_GC_RTGcore_GC] (site CGGTCCCCTTG) (LTG core: GC, RTG core: GC)",0.475
20,"CGGTCCCGGTGGGTTCTAACCTGTTGCCACC [CGGTCCCCTTG_LTGcore_GG_RTGcore_GG] (site CGGTCCCCTTG) (LTG core: GG, RTG core: GG)",0.213
21,"CGGTCCCTATGGGTTCTAACCTGTTGCCAAG [CGGTCCCCTTG_LTGcore_TA_RTGcore_CT] (site CGGTCCCCTTG) (LTG core: TA, RTG core: CT)",0.0831
22,"GAGCCCAAGTGGGTTCTAACCTGTTGCCTCT [GAGCCCACTAG_LTGcore_AG_RTGcore_AG] (site GAGCCCACTAG) (LTG core: AG, RTG core: AG)",0.229
23,"GAGCCCACATGGGTTCTAACCTGTTGCCTAG [GAGCCCACTAG_LTGcore_CA_RTGcore_CT] (site GAGCCCACTAG) (LTG core: CA, RTG core: CT)",0.304

row,Sequence,recombinant barcode read abundance (log10)
1,"GAGCCCACTTGGGTTCTAACCTGTTGCCTCC [GAGCCCACTAG_LTGcore_CT_RTGcore_GG] (site GAGCCCACTAG) (LTG core: CT, RTG core: GG)",0.136
2,"GAGCCCACTTGGGTTCTAACCTGTTGCCTGA [GAGCCCACTAG_LTGcore_CT_RTGcore_TC] (site GAGCCCACTAG) (LTG core: CT, RTG core: TC)",0.207
3,"GAGCCCACTTGGGTTCTAACCTGTTGCCTGC [GAGCCCACTAG_LTGcore_CT_RTGcore_GC] (site GAGCCCACTAG) (LTG core: CT, RTG core: GC)",0.3
4,"GAGCCCACTTGGGTTCTAACCTGTTGCCTGG [GAGCCCACTAG_LTGcore_CT_RTGcore_CC] (site GAGCCCACTAG) (LTG core: CT, RTG core: CC)",0.911
5,"GAGCCCACTTGGGTTCTAACCTGTTGCCTGT [GAGCCCACTAG_LTGcore_CT_RTGcore_AC] (site GAGCCCACTAG) (LTG core: CT, RTG core: AC)",0.522
6,"GAGCCCACTTGGGTTCTAACCTGTTGCCTTC [GAGCCCACTAG_LTGcore_CT_RTGcore_GA] (site GAGCCCACTAG) (LTG core: CT, RTG core: GA)",0.518
7,"GAGCCCAGCTGGGTTCTAACCTGTTGCCTAG [GAGCCCACTAG_LTGcore_GC_RTGcore_CT] (site GAGCCCACTAG) (LTG core: GC, RTG core: CT)",0.266
8,"GAGCCCATGTGGGTTCTAACCTGTTGCCTCA [GAGCCCACTAG_LTGcore_TG_RTGcore_TG] (site GAGCCCACTAG) (LTG core: TG, RTG core: TG)",0.995
9,"GAGGCCTCTTGGGTTCTAACCTGTTGCCAAC [GAGGCCTCTTG_LTGcore_CT_RTGcore_GT] (site GAGGCCTCTTG) (LTG core: CT, RTG core: GT)",1.25
10,"GAGGCCTCTTGGGTTCTAACCTGTTGCCAGA [GAGGCCTCTTG_LTGcore_CT_RTGcore_TC] (site GAGGCCTCTTG) (LTG core: CT, RTG core: TC)",0.245
11,"GAGGCCTCTTGGGTTCTAACCTGTTGCCATG [GAGGCCTCTTG_LTGcore_CT_RTGcore_CA] (site GAGGCCTCTTG) (LTG core: CT, RTG core: CA)",0.0789
12,"GAGGCCTGGTGGGTTCTAACCTGTTGCCAAG [GAGGCCTCTTG_LTGcore_GG_RTGcore_CT] (site GAGGCCTCTTG) (LTG core: GG, RTG core: CT)",0.103
13,"GAGGCCTGGTGGGTTCTAACCTGTTGCCACC [GAGGCCTCTTG_LTGcore_GG_RTGcore_GG] (site GAGGCCTCTTG) (LTG core: GG, RTG core: GG)",0.445
14,"GAGTCCAAATGGGTTCTAACCTGTTGCGTTT [GAGTCCACTAC_LTGcore_AA_RTGcore_AA] (site GAGTCCACTAC) (LTG core: AA, RTG core: AA)",0.0227
15,"GAGTCCAACTGGGTTCTAACCTGTTGCGTGT [GAGTCCACTAC_LTGcore_AC_RTGcore_AC] (site GAGTCCACTAC) (LTG core: AC, RTG core: AC)",0.0932
16,"GAGTCCAATTGGGTTCTAACCTGTTGCGTAG [GAGTCCACTAC_LTGcore_AT_RTGcore_CT] (site GAGTCCACTAC) (LTG core: AT, RTG core: CT)",0.156
17,"GAGTCCACCTGGGTTCTAACCTGTTGCGTGG [GAGTCCACTAC_LTGcore_CC_RTGcore_CC] (site GAGTCCACTAC) (LTG core: CC, RTG core: CC)",0.0684
18,"GAGTCCACGTGGGTTCTAACCTGTTGCGTAG [GAGTCCACTAC_LTGcore_CG_RTGcore_CT] (site GAGTCCACTAC) (LTG core: CG, RTG core: CT)",0.114
19,"GAGTCCACTTGGGTTCTAACCTGTTGCGTAT [GAGTCCACTAC_LTGcore_CT_RTGcore_AT] (site GAGTCCACTAC) (LTG core: CT, RTG core: AT)",0.389
20,"GAGTCCACTTGGGTTCTAACCTGTTGCGTCG [GAGTCCACTAC_LTGcore_CT_RTGcore_CG] (site GAGTCCACTAC) (LTG core: CT, RTG core: CG)",0.702
21,"GAGTCCAGCTGGGTTCTAACCTGTTGCGTAG [GAGTCCACTAC_LTGcore_GC_RTGcore_CT] (site GAGTCCACTAC) (LTG core: GC, RTG core: CT)",0.0179
22,"GAGTCCAGTTGGGTTCTAACCTGTTGCGTAG [GAGTCCACTAC_LTGcore_GT_RTGcore_CT] (site GAGTCCACTAC) (LTG core: GT, RTG core: CT)",0.283

# — the supplement of paper PMC11208160
